In ChEMBL document CHEMBL1212807, “Chemical reprogramming of Caenorhabditis elegans germ cell fate” (Nat Chem Biol, 2010):
pEC50: −log10 of the molar value. Activity calls are given as the source filed them. No cut-off for these calls is given here.

Assays:
Caenorhabditis elegans [1] = assay: Induction of oocyte production in Caenorhabditis elegans Bristol isolate N2 with […]; lip-1 double mutant at 100 uM; format: functional
Caenorhabditis elegans [2] = assay: Induction of oocyte production in Caenorhabditis elegans Bristol isolate N2 with puf-1; lip-1 double mutant
Caenorhabditis elegans [3] = assay: Induction of oocyte production in Caenorhabditis elegans Bristol isolate N2 with […]; lip-1 double mutant assessed as change in oocyte-specific cellular morphology at 50 uM; format: functional
Caenorhabditis elegans [4] = assay: Induction of oocyte production in Caenorhabditis elegans Bristol isolate N2 with […]; lip-1 double mutant assessed as expression of oocyte marker RME-2 50 uM; format: functional, organism-based
Caenorhabditis elegans [5] = assay: Decrease in activated MPK-1/ERK levels in Caenorhabditis elegans Bristol isolate N2 by Western blot method at 50 uM; format: functional, organism-based

Work on `COc1cccc(-c2cc(=O)c3ccccc3o2)c1N` yielded an Activity (Caenorhabditis elegans [1]) of 5.3%.

`N#CC(=C(/N)Sc1ccccc1N)/C(C#N)=C(\N)Sc1ccccc1N` gave a pEC50 (Caenorhabditis elegans [2]) of 5.70.

In the case of `O=C(NOC[C@H](O)CO)c1ccc(F)c(F)c1Nc1ccc(I)cc1F` [MIRDAMETINIB], the Activity (Caenorhabditis elegans [3]) was 91%, the Activity (Caenorhabditis elegans [4]) was “Active” and the Activity (Caenorhabditis elegans [5]) was “Active”.
